Tests used:
mu opioid receptor (MOR) [1] = molecular target: T1, mu opioid receptor (MOR) (Homo sapiens, UniProt P35372); test: PathHunter β-arrestin recruitment assay, PAM mode with EC20 endomorphin-1; type: cell-based
How it was run: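 Enzyme fragment complementation read-out: β-gal ED fragment fused to receptor, EA fused to β-arrestin, recruitment restoring β-gal activity detected by chemiluminescence. EC50 and percent maximal response derived for each compound.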

mu opioid receptor (MOR) [2] = molecular target: T1, mu opioid receptor (MOR); test: Hit Hunter cAMP signaling assay (adenylyl cyclase inhibition), PAM mode with EC20 endomorphin-1; type: cell-based
[3] = maximal response for β-arrestin recruitment
[4] = β-arrestin recruitment, read-out: β-arr. EC50
[5] = adenylyl cyclase inhibition, read-out: cAMP EC50
[6] = maximal response for adenylyl cyclase inhibition
[7] = cAMP EC50, adenylyl cyclase inhibition
[8] = maximal response, β-arrestin recruitment
[9] = maximal response, adenylyl cyclase inhibition

T1 sequence (P35372 whole entry, the tested form may be a part): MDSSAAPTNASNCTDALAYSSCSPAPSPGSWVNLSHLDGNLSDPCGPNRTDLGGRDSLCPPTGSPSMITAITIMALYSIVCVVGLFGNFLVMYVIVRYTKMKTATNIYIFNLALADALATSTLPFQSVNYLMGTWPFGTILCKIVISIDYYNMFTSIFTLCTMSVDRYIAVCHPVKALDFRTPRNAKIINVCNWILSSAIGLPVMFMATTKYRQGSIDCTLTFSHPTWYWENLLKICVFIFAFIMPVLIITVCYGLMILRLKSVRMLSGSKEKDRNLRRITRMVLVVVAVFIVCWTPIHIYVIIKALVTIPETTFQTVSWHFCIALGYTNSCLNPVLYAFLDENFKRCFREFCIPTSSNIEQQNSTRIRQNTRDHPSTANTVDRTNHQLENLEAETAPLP

SMILES	β-arr Max. Resp. (mu opioid receptor (MOR) [1]; [3])	EC50 (mu opioid receptor (MOR) [1]; [4])	EC50 (mu opioid receptor (MOR) [2]; [5])	cAMP Max. Resp. (mu opioid receptor (MOR) [2]; [6])	EC50 (mu opioid receptor (MOR) [2]; [7])	other results
O=S(=O)(c1ccc(Cl)cc1)N1CCCCC1c1cncc(C(F)(F)F)n1 (stereo not drawn) [compound 63]	F (F represents a maximal response of > 60%)	> 2100 nM	> 2100 nM	E (E represents a maximal response of 40-60%)		β-arrestin Max Response (mu opioid receptor (MOR) [1]; β-arrestin recruitment, activity switching by MOR PAMs): F (F represents a maximal response of >60%); EC50 (mu opioid receptor (MOR) [1]; β-arrestin recruitment, activity switching by MOR PAMs, read-out: β-arrestin EC50): > 2100 nM; cAMP Max Resp. (mu opioid receptor (MOR) [2]; adenylyl cyclase inhibition, activity switching by MOR PAMs): E (E represents a maximal response of 40-60%); EC50 (mu opioid receptor (MOR) [2]; adenylyl cyclase inhibition, activity switching by MOR PAMs, read-out: cAMP EC50): > 2100 nM
Fc1cc(C2CCC(OCCN3CCOCC3)CN2c2nc(Cl)ncc2F)cc(C(F)(F)F)c1 (stereo not drawn) [compound 304]	D (D represents a maximal response of < 40%)	> 2100 nM	> 2100 nM	D (D represents a maximal response of < 40%)		
CC1CCN(S(=O)(=O)c2ccc(Cl)cc2)C1c1ccc(Cl)c(Br)c1 (mixture of isomers) [Compound 99]	E (E represents a maximal response of 40-60%)	< 700 nM	< 700 nM	D (D represents a maximal response of < 40%)		
COC(=O)c1cc(C2CCCCN2S(=O)(=O)c2ccc(Cl)cc2)ccn1 (racemic) [compound 81]	E (E represents a maximal response of 40-60%)	> 2100 nM	> 2100 nM	D (D represents a maximal response of < 40%)		
Cc1cccc(C2CCCCN2c2nc(Cl)ncc2F)n1 (stereo not drawn) [compound 414]	D (D represents a maximal response of < 40%)	< 700 nM		D (D represents a maximal response of < 40%)	< 700 nM	
C=C1CCN(c2nc(Cl)ncc2F)C(c2cc(F)cc(C(F)(F)F)c2)C1 (stereo not drawn) [compound 200]	F (F represents a maximal response of > 60%)	< 700 nM		E (E represents a maximal response of 40-60%)	< 700 nM	
Cc1ncc(F)c(N2CCCCC2c2cccc(C(F)(F)F)c2)n1 (stereo not drawn) [compound 269]	F (F represents a maximal response of > 60%)	> 2100 nM		D (D represents a maximal response of < 40%)	> 2100 nM	
Fc1cnccc1C1CCCCN1c1nc(Cl)ncc1F (stereo not drawn) [compound 375]	D (D represents a maximal response of < 40%)	< 700 nM		D (D represents a maximal response of < 40%)	< 700 nM	
Fc1cnc(Cl)nc1N1CC(C(F)(F)F)CC1c1cccc(C(F)(F)F)c1 (stereo not drawn) [compound 473]		> 2100 nM	> 2100 nM			β-arr Max. Resp. (mu opioid receptor (MOR) [1]; [8]): E (E represents a maximal response of 40-60%); cAMP Max. Resp. (mu opioid receptor (MOR) [2]; [9]): D (D represents a maximal response of < 40%)
Fc1ccc(Cl)nc1N1CCCCC1c1cncc(Cl)n1 (stereo not drawn) [compound 395]	D (D represents a maximal response of < 40%)	< 700 nM	< 700 nM	D (D represents a maximal response of < 40%)		
O=C1CCN(c2nc(Cl)ncc2F)C(c2ccc(F)c(Br)c2)C1 (stereo not drawn) [compound 240]	D (D represents a maximal response of < 40%)	> 2100 nM		E (E represents a maximal response of 40-60%)	> 2100 nM	
COc1ccc(C2CCCCN2c2cc(F)cc(Cl)n2)cc1Br (stereo not drawn) [compound 215]	F (F represents a maximal response of > 60%)	700 to 2100 nM		D (D represents a maximal response of < 40%)	> 2100 nM	
O=S(=O)(c1ccc(Cl)cc1)N1CCCCC1c1ccc(F)c(Br)c1 (single isomer, unassigned) [compound 56]	F (F represents a maximal response of > 60%)	> 2100 nM	700 to 2100 nM	E (E represents a maximal response of 40-60%)		
Fc1ccc(C2COCCN2c2nc(Cl)ncc2F)cc1Cl (racemic) [Compound 189]	F (F represents a maximal response of > 60%)	700 to 2100 nM	700 to 2100 nM	F (F represents a maximal response of > 60%)		
COc1ccc(C2CCCCN2S(C)(=O)=O)cc1Br (stereo not drawn) [compound 16]	D (D represents a maximal response of < 40%)	> 2100 nM		D (D represents a maximal response of < 40%)	> 2100 nM	
O[C@H]1CC[C@H](c2cc(F)cc(C(F)(F)F)c2)N(c2nc(Cl)ncc2F)C1 (relative stereo) [compound 310]	F (F represents a maximal response of > 60%)	> 2100 nM	700 to 2100 nM	F (F represents a maximal response of > 60%)		
Fc1cnc(Cl)nc1C1CCCCN1c1nc(Cl)ncc1F (stereo not drawn) [compound 357]	D (D represents a maximal response of < 40%)	< 700 nM		D (D represents a maximal response of < 40%)	< 700 nM	
[2H]C1(c2ccc(F)c(Br)c2)C(F)CCCN1c1nc(Cl)ncc1F (stereo not drawn) [compound 214]	F (F represents a maximal response of > 60%)			E (E represents a maximal response of 40-60%)		
Fc1cccc(C2CCCCN2c2nc(Cl)ccc2F)n1 (stereo not drawn) [compound 264]	E (E represents a maximal response of 40-60%)	> 2100 nM		F (F represents a maximal response of > 60%)	700 to 2100 nM	
COc1ccc(C2C(F)CCCN2c2nc(Cl)ncc2F)cc1Br (stereo not drawn) [compound 213]	F (F represents a maximal response of > 60%)	> 2100 nM		D (D represents a maximal response of < 40%)		EC50 (mu opioid receptor (MOR) [2]; read-out: cAMP EC50, adenylyl cyclase inhibition): > 2100 nM
FC(F)(F)c1cccc(C2CCCCN2c2ccnc(Cl)n2)n1 (stereo not drawn) [compound 469]		> 2100 nM			> 2100 nM	β-arr Max. Resp. (mu opioid receptor (MOR) [1]; [8]): F (F represents a maximal response of > 60%); cAMP Max. Resp. (mu opioid receptor (MOR) [2]; [9]): D (D represents a maximal response of < 40%)
Fc1ccc(N2CCCCC2c2ccc(F)c(Cl)c2)cc1 (stereo not drawn) [compound 475]		> 2100 nM			> 2100 nM	β-arr Max. Resp. (mu opioid receptor (MOR) [1]; [8]): F (F represents a maximal response of > 60%); cAMP Max. Resp. (mu opioid receptor (MOR) [2]; [9]): D (D represents a maximal response of < 40%)
Fc1cc(C2COCCN2c2nc(Cl)ncc2F)cc(C(F)(F)F)c1 (single isomer, unassigned) [Compound 347]	D (D represents a maximal response of < 40%)	< 700 nM	< 700 nM	D (D represents a maximal response of < 40%)		
Fc1cnc(Cl)nc1N1CCCCC1c1ccccc1 (stereo not drawn) [compound 362]	D (D represents a maximal response of < 40%)	< 700 nM		D (D represents a maximal response of < 40%)	< 700 nM	
Fc1cc(C2CC(C(F)(F)F)CN2c2nc(Cl)ncc2F)cc(C(F)(F)F)c1 (stereo not drawn) [compound 457]		> 2100 nM	> 2100 nM			β-arr Max. Resp. (mu opioid receptor (MOR) [1]; [8]): F (F represents a maximal response of > 60%); cAMP Max. Resp. (mu opioid receptor (MOR) [2]; [9]): E (E represents a maximal response of 40-60%)
CC1CCN(S(=O)(=O)c2ccc(Cl)cc2)C1c1ccc(F)c(C#N)c1 (mixture of isomers) [Compound 93]	E (E represents a maximal response of 40-60%)	700 to 2100 nM	> 2100 nM	D (D represents a maximal response of < 40%)		
Fc1cnc(Cl)nc1N1CCCCC1c1ccc(Cl)c(C(F)(F)F)c1 (single isomer, unassigned) [compound 348]	D (D represents a maximal response of < 40%)	< 700 nM		D (D represents a maximal response of < 40%)		
COc1ccc(C2N(S(=O)(=O)c3ccc(Cl)cc3)CCC2(F)F)cc1Br (racemic) [Compound 85]	D (D represents a maximal response of < 40%)	> 2100 nM	> 2100 nM	D (D represents a maximal response of < 40%)		
COc1ccc(C2CC(F)(F)CN2c2nc(Cl)ncc2F)cc1Br (stereo not drawn) [compound 466]		> 2100 nM	> 2100 nM			β-arr Max. Resp. (mu opioid receptor (MOR) [1]; [8]): F (F represents a maximal response of > 60%); cAMP Max. Resp. (mu opioid receptor (MOR) [2]; [9]): D (D represents a maximal response of < 40%)
